Reference: patent US20190276495A1 (priority 2016, published 2019)

Key:
[1] = system: BALB/cAJc mice; conditions: mouse, in vivo, iv
[2] = system: Balb/c mice; conditions: mouse, in vivo, ip

Substance	IgG (anti-MAP antibody in sera) [1]	IgM (anti-MAP antibody in sera) [1]	IgG (anti-MAP antibody in sera) [2]	IgM antibody titer against Ebola 1 [2]
Core-[PEG-FPRCRYVHK]4 [Ebola 2 MAP4]	no increase	no increase	–	–
Core-[PEG-IKKADGSECLP]4 [Ebola 1 MAP4]	increase in IgG was seen only in the 100-μg administration group	–	no increase	one mouse showed an evident increase, and two mice showed mild increases
